3 compounds from paper PMC5478822, “In Vitro Anticancer Effect of Gedunin on Human Teratocarcinomal (NTERA-2) Cancer Stem-Like Cells” (BioMed Research International, 2017) can be followed below.

In brackets after ≈: the same amount, converted by molar mass. Like-named read-outs stand apart in the source and are kept apart here.

For series [1], the system named is NTERA-2 cells. The series is described as follows: DNA fragmentation analysis. The series is classed as cell-based, human. The following applies: 48 and 72 h, gedunin 5, 10 and 15 μg/mL. As to the method: DNA fragmentation analysis was carried out according to previously described methods. NTERA-2 cells (2.5 × 10^4 cells/mL) were grown in cell culture flasks and incubated for 24 h. After incubation, flasks were treated with gedunin dissolved in 0.1% DMSO (5, 10, and 15 μg/mL) and further incubated for 48 and 72 h. Negative control for the experiment was 0.1% DMSO in DMEM medium. At the end of the incubation period, cells were trypsinized and cell pellets were obtained. Cell pellets were then incubated for 60 min at 50°C in a 100 μL of lysis buffer (100 mM Tris–HCl, pH 8, 100 mM NaCl, and 10 mM EDTA). Proteinase K (10 μL, 20 mg/mL) was then added to cell lysates and incubated for 30 min at 50°C. After adding 3 μL of 10 mg/mL RNase, the mixture was incubated for 2 h at 50°C. DNA was extracted in phenol chloroform-isoamyl alcohol and 1 μg of isolated DNA from each sample was subjected to 2.0% of agarose gel electrophoresis and visualized under UV using a gel-doc system (Quantum-ST4 1100/20 M).

For series [2], the system named is peripheral blood mononuclear cells. The series is described as follows: WST-1 cell viability assay. The series is classed as cell-based, human. The following applies: for IC50: Homo sapiens, PBMC, PBMCs, WST-1 assay; for Cytotoxic effect on normal peripheral blood mononuclear cells: WST-1 cell viability assay. As to the method:
Cytotoxic effects of gedunin and positive control (retinoic acid) on normal human cells were evaluated by using human peripheral blood mononuclear cells. Collected blood was diluted with Hank's Buffered Salt Solution (HBSS) and layered onto Histopaque 1077. Blood was then centrifuged at 1000 rpm for 10 min. After centrifugation, opaque interface which contains mononuclear cells was seperated and washed with phosphate buffered saline (PBS). Cells were then counted and cultured (2 × 10^5 cells/mL) in RPMI medium supplemented with 10% fetal bovine serum (FBS), 50 IU/mL penicillin, and 50 μg/mL streptomycin in 24-well plates. Cells were then treated with different concentrations of gedunin and retinoic acid dissolved in 0.1% DMSO (3.125, 6.25, 12.5, 25, and 50 μg/mL) and incubated for 24, 48, and 72 h. Negative control for the experiment was 0.1% DMSO in RPMI medium. WST-1 cell proliferation assay was then carried out according to manufacturer's instructions to determine the cytotoxic effects.
(Tetrazolium dyes change colour on reduction, which living cells bring about.)

A further series concerns HSP90. Kind of series: RT-qPCR gene expression, HSP90. The format is cell-based, human. The following applies: NTERA-2 cells, 5 and 10 μg/mL, 24 h. The protocol:
(§1) NTERA-2 (2.5 × 10^5 cells/mL) cells were cultured in cell culture flasks and treated with gedunin dissolved in 0.1% DMSO (5 and 10 μg/mL) for 24 h. Negative control for the experiment was 0.1% DMSO in DMEM medium. Following incubation, total RNA was extracted with TRIzol® reagent according to the manufacturer's instructions. For reverse transcription, extracted RNA (2 μg) was mixed with 50 ng of random primers and the total volume was made up to 13.5 μL with ultrapure water. Resulting mixture was incubated at 70°C for 5 min and, after incubation, it was kept on ice for 2 min. Complementary DNA (cDNA) was then synthesized by adding 2 μL from the transcription mixture, 5 μL of 5x MMLV-buffer, 5 μL of 10 mM deoxynucleotide mixture, 25 units of RNasin, and 200 units of MMLV-reverse transcriptase in a reaction mixture of 25 μL adjusted by adding ultrapure water and incubated at 37°C for 60 min. Real-time PCR was carried out in Stratagene Mx3000P using a master mix containing SYBR green (MESA Green qPCR Master Mix Plus for SYBR Assay). Primers used for real-time PCR are given in Table 1 and glyceraldehyde-3-phosphate dehydrogenase (GAPDH) was used as the internal housekeeping gene. […] Results of real-time PCR were analysed using the formula 2^−ΔΔCt.

Another series deals with AKT. Kind of series: RT-qPCR gene expression, AKT. The format is cell-based, human. To be noted: NTERA-2 cells, 24 h incubation. The protocol:
as §1

In another series the test system is ErbB2. The series is described as follows: RT-qPCR gene expression, ErbB2. The series is classed as cell-based, human. To be noted: NTERA-2 cells, 24 h incubation. The protocol: as §1
(In general: Quantitative PCR measures a nucleic acid by following its amplification.)

Series [3] concerns NTERA-2 cells. The series is described as follows: Nitrobluetetrazolium reactive oxygen species (ROS) assay. The format is cell-based, human. To be noted: 24 h after incubation, 2.5, 5 and 10 μg/mL. As to the method: ROS measurement in gedunin treated NTERA-2 cells was carried out using previously described methods. Cells (2 × 10^3) were cultured in 96-well cell culture plates and incubated for 24 h. After incubation cells were treated with gedunin (2.5, 5, and 10 μg/mL) and incubated for further 24 h. Cells were then incubated with nitrobluetetrazolium (1 mg/mL) for 1 h at 37°C. After the incubation 100 μL of DMSO was added to solubilize blue formazan, plates were shaken for 10 min at room temperature, and the absorbance was read at 620 nm.

The test system of series [4] is NTERA-2 cells. The series is described as follows: Acridine orange/ethidium bromide (AO/EB) staining. The following applies: NTERA-2 cells, 2.5, 5 and 10 μg/mL, 24 h. The series is classed as cell-based, human. As to the method: NTERA-2 cells (2.5 × 10^4 cells/mL) were cultured on cell culture treated coverslips and incubated for 24 h. Subsequently, cells were exposed to different concentrations of gedunin dissolved in 0.1% DMSO (2.5, 5, and 10 μg/mL) and incubated for 24 h. Negative control for the experiment was 0.1% DMSO in DMEM medium. After incubation, cells were fixed using 4% formaldehyde in the dark for 10 min. Cells were then washed with PBS and stained with ethidium bromide (100 μg/mL) and acridine orange (100 μg/mL) solutions (1 : 1 v/v). Excess dye was then washed off with PBS and cell morphology was observed using a fluorescence microscope (BX51 TRF, Olympus Corporation, Tokyo, Japan).

Series [5] deals with NTERA-2 cells. The series is described as follows: Sulforhodamine B (SRB) antiproliferative assay. The series is classed as cell-based. To be noted: Homo sapiens. As to the method:
The NTERA-2 cells were cultured using Dulbecco's Modified Eagle's Medium (DMEM), supplemented with 10% fetal bovine serum (FBS), 50 IU/mL penicillin, and 50 μg/mL streptomycin. Cells were incubated at 37°C with 5% CO2 and 95% humidity.
Prior to the SRB assay, NTERA-2 cells were grown in a 75 cm[…] flasks. Upon confluency, cells were trypsinized and seeded into 96-well plates (5 × 10^3 cells/well). After 24 h incubation, cells were treated with various concentrations (3.125, 6.25, 12.5, 25, and 50 μg/mL) of gedunin and retinoic acid (positive control) dissolved in 0.1% dimethyl sulfoxide (DMSO) and incubated for 24, 48, and 72 h. Negative control for the experiment was 0.1% DMSO in DMEM medium. Then the cells were fixed with 20 μL of 50% (trichloroacetic acid) TCA and incubated for further 1 h at 4°C. After incubation, cells were washed five times with tap water and stained with 50 μL of 0.4% (w/v) SRB solution. After 20 min of incubation, SRB solution was poured off and unbound dye was removed by washing five times with 1% acetic acid. Bound SRB dye was then solubilized by adding 100 μL of Tris base solution. The plates were shaken for 1 h and absorbance was read at 540 nm OD.

The subject of the next series is survivin. Kind of series: RT-qPCR gene expression, survivin. To be noted: NTERA-2 cells, both doses tested, 24 h. The format is cell-based, human. The protocol:
as §1

For series [6], the system named is caspase 3/7 in NTERA-2 cells. Kind of series: Caspase 3/7 assay. The series is classed as cell-based, human. To be noted: 24 h. The protocol:
NTERA-2 cells (2.5 × 10^4 cells/mL) were cultured in 96-well cell culture plates and incubated for 24 h. After incubation, cells were treated with gedunin dissolved in 0.1% DMSO (2.5, 5, and 10 μg/mL) and incubated for further 24 h. Negative control for the experiment was 0.1% DMSO in DMEM medium. Caspase 3/7 reagent (100 μL) was then added to each well and incubated for 1 h in dark at 37°C. Luminescence of each well was measured by a plate reader.

For series [7], the system named is NTERA-2 cells. The series is described as follows: TUNEL assay. The series is classed as cell-based, human. To be noted: NTERA-2 cells, 2.5, 5 and 10 μg/mL, 24 h. As to the method: Terminal deoxynucleotidyl transferase-mediated dUTP-biotin nick-end labeling (TUNEL) staining was carried out to confirm in situ chromatin fragmentation. Cells cultured on coverslips (2.5 × 10^4 cells/mL) were treated with different concentrations of gedunin dissolved in 0.1% DMSO (2.5, 5, and 10 μg/mL) and incubated for 24 h. Negative control for the experiment was 0.1% DMSO in DMEM medium. TUNEL staining was carried out according to manufacturer's instructions. Briefly, cells were fixed with 4% formaldehyde and permeabilized with 0.2% Triton X-100. Equilibration buffer (100 μL) and TdT reaction mix to label DNA were added and incubated for further 60 min in a humidified chamber. Then coverslips were immersed in 2x SSC buffer for 15 min followed by immersing in 0.3% H2O2 for 3 min. Finally, labeled fragments were incubated with streptavidin horseradish peroxidase and visualized after diaminobenzidine (DAB) color development where dark brown spots confirmed apoptosis.

The next series relates to Cdc37. Kind of series: RT-qPCR gene expression, Cdc37. The format is cell-based, human. To be noted: NTERA-2 cells, 5 and 10 μg/mL, 24 h. The protocol:
as §1

Another series deals with HSF1. The series is described as follows: RT-qPCR gene expression, HSF1. To be noted: NTERA-2 cells, 24 h incubation. The format is cell-based, human. The protocol: as §1
The next series deals with p53. The series is described as follows: RT-qPCR gene expression, p53. The series is classed as cell-based, human. The following applies: NTERA-2 cells, 5 and 10 μg/mL, 24 h. The protocol: as §1
Another series has as its system Bax. The series is described as follows: RT-qPCR gene expression, Bax. The format is cell-based, human. To be noted: NTERA-2 cells, both doses tested, 24 h. The protocol:
as §1

The mark [8] stands for this setting: 24 h incubation, read-out: IC50 in peripheral blood mononuclear cells, 24 h.
[9] abbreviates: 48 h incubation, read-out: IC50 in peripheral blood mononuclear cells, 48 h.
[10] abbreviates: 72 h incubation, read-out: IC50 in peripheral blood mononuclear cells, 72 h.
The mark [11] stands for this setting: NTERA2, 24 h incubation, read-out: IC50 in NTERA-2 cells, 24 h.
Setting [12] is: NTERA2, 48 h incubation, read-out: IC50 in NTERA-2 cells, 48 h.
Setting [13] is: NTERA2, 72 h incubation, read-out: IC50 in NTERA-2 cells, 72 h.

In the case of `CC1=CC(=O)C(C(C)C)=CC1=O` [thymoquinone], the “DNA fragmentation (laddering pattern)” value in the series with NTERA-2 cells [1] is on record as “smeared laddering pattern of DNA was observed”.

On to `CC(=O)O[C@@H]1C[C@H]2C(C)(C)C(=O)C=C[C@]2(C)[C@H]2CC[C@@]3(C)[C@H](c4ccoc4)OC(=O)[C@H]4O[C@]43[C@@]21C` [Gedunin], for which the IC50 in series [2] (setting [8]) was more than 100 µg/mL; in series [2] (setting [9]), more than 100 µg/mL; in series [2] (setting [10]), more than 100 µg/mL; in the series with NTERA-2 cells [5] (setting [11]), 14.6 µg/mL (≈ 30.2 µM); in the series on NTERA-2 cells [5] (setting [12]), 8.49 µg/mL (≈ 17.6 µM); in the series on NTERA-2 cells [5] (setting [13]) it was 6.55 µg/mL (≈ 13.6 µM). Further, the “Cytotoxic effect on normal peripheral blood mononuclear cells” value in series [2] is reported as “minimal effect on PBMCs”; in series [2] (listed as gedunin), “not significant”. In the series on HSP90, the “Expression of HSP90 (real-time PCR)” value was “downregulation”. Besides, in the series on AKT, the “Expression of AKT (real-time PCR)” value was “Significant downregulation”. In the series with ErbB2, the “Expression of ErbB2 (real-time PCR)” value was “Significant downregulation”. For the same compound, the ROS production entry with NTERA-2 cells [3] is given as “increase in ROS production”. The “Morphological changes after AO/EB staining” value in the series with NTERA-2 cells [4] is “morphological changes of apoptosis”. The “DNA fragmentation (laddering pattern)” value with NTERA-2 cells [1] is given as “smeared laddering pattern of DNA was observed”. Besides, the “Expression of survivin (real-time PCR)” value in the series with survivin is recorded as “downregulation”. Also, the figures for the “Fold change in caspase 3/7 activity” value in [6] (2.5 μg/mL), in series [6] (5 μg/mL) and in series [6] (10 μg/mL) were 1.08 fold, 1.2 fold and 1.41 fold, respectively. In the series with NTERA-2 cells [7], the TUNEL-positive nuclei entry is listed as “increase in the number of TUNEL-positive nuclei”. The “Expression of Cdc37 (real-time PCR)” value in the series on Cdc37 is on record as “downregulation”. For the same compound, in the series with HSF1, the “Expression of HSF1 (real-time PCR)” value is on record as “Significant downregulation”. The “Expression of p53 (real-time PCR)” value with p53 was “upregulation of p53”. In addition, the “Expression of Bax (real-time PCR)” value in the series with Bax is reported as “Upregulation of Bax”.

As to `CC1=C(/C=C/C(C)=C/C=C/C(C)=C/C(=O)O)C(C)(C)CCC1` [Retinoic acid, retinoic acid, reference compound], the IC50 in series [2] (setting [8]) was more than 100 µg/mL; in series [2] (setting [9]) it was more than 100 µg/mL; in [2] (setting [10]), more than 100 µg/mL; in the series on NTERA-2 cells [5] (setting [11]) it was 14.4 µg/mL (≈ 47.8 µM); in the series with NTERA-2 cells [5] (setting [12]) it was 9.17 µg/mL (≈ 30.5 µM); with NTERA-2 cells [5] (setting [13]), 6.87 µg/mL (≈ 22.9 µM). Further, the “DNA fragmentation (laddering pattern)” value in the series on NTERA-2 cells [1] is “smeared laddering pattern of DNA was observed”.

A word on the IC50: it is the concentration that gives 50% inhibition.
